Reference: article PMC5760710, “The evolution of substrate discrimination in macrolide antibiotic resistance enzymes” (Nature Communications, 2018)
≈ marks a conversion by molar mass, not a printed value.

Columns and labels:
[1] = target: T1, MphB (Escherichia coli, UniProt A0A0H3EUF3); assay: biochemical; parameters: PK/LDH-coupled continuous assay of macrolide phosphorylation; steady-state kinetics, NADH absorbance; settings: substrate inhibition
T1 construct: codon-optimized gene, N-terminal His tag in pET28a, expressed in E. coli BL21(DE3), Ni-NTA purified
Method: (§1) Steady-state kinetics for Mphs were measured using the continuous PK/LDH-coupled assay[27],[32],[36],[71]. Reactions were performed in 96-well plates (Nunc, Thermo Scientific) using Spectramax Plus384 (Molecular Devices) in duplicate. Individual reactions were 100 µL and contained 50 mM HEPES pH 7.5, 40 mM KCl, 10 mM MgCl2, 0.2 mM NADH, 3.5 mM PEP, and 4.8 U PK/LDH (pyruvate kinase/lactate dehydrogenase). […] For determining the Km for macrolides, GTP was maintained at 200 µM and macrolides were varied between 0.49 µM and 1000 µM. Enzyme efficiency varied considerably between substrates, and therefore some enzymes were used at different concentrations depending on the substrate in order to produce a linear range suitable for Km determination. These concentrations were as follows; MphB 140 nM (most substrates), MphB 36 nM (josamycin), MphI 45 nM (descladinose macrolides), MphI 1.44 µM (C3 cladinose macrolides), Azi_1.1 90 nM (all substrates), Ery_1 (all substrates), MphK 680 nM (all substrates), MphIS111R/T166E/P211L 90 nM (descladinose macrolides), MphIS111R/T166E/P211L 1.43 µM (C3 cladinose macrolides), MphIM40A/S111R/T166E 22 nM (descladinose macrolides), MphIM40A/S111R/T166E 430 nM (C3 cladinose macrolides), MphIS111R/T166E 22 nM (descladinose macrolides), MphIS111R/T166E 1.43 µM (C3 cladinose macrolides). Enzyme kinetics experiments were performed at least two independent times. Steady-state kinetics of Mphs

[2] = system: T2, E. coli BW25113 ΔbamBΔtolC; assay: microbe, parasite or virus in culture; settings: Escherichia coli, BW25113, 24 h; empty vector
T2 construct: BW25113 ΔbamBΔtolC empty vector pGDP4
Method: (§2) mphB was codon optimized, synthetized as a gBlock (IDT) and cloned into pET28a with an N-terminal histidine tag. The codon optimized mphB sequence is in Supplementary Table 17. mphI was previously cloned into pET22b[36]. pGDP4 is a derivative of pET28a with the multiple-cloning site under the control of the constitutive lac promoter. mphI was subcloned into pGDP4 using the XbaI and XhoI restriction sites. E. coli was routinely cultured on LB-Lennox (Bioshop) at 37 °C overnight, and either 100 µg mL^−1 ampicillin or 50 µg mL^−1 kanamycin was used for plasmid selection. E. coli TOP10 (Invitrogen) was used for routine cloning experiments and susceptibility testing of mphs cloned into pGDP4. E. coli BL21(DE3) (Stratagene, USA)was used for protein overexpression experiments. E. coli BW25113 ΔbamBΔtolC is an antibiotic hypersensitive, and was used for susceptibility testing of Mphs cloning into pGDP4. Antibiotic susceptibility testing was performed according to the Clinical and Laboratory Standards Institute guidelines[74] for determining minimal inhibitory concentration (MIC) in 96-well plates (Sarstedt, Germany) in duplicate. MIC values were reproducible. A saline suspension of OD600 of 0.1 was made from 2–3 colonies of a fresh overnight, and diluted 1:200 into Mueller-Hinton Broth (BD Biosciences). […] Susceptibility assays were performed at least two independent times.

[3] = target: T3, MphK (Bacillus subtilis, UniProt P42242); parameters: PK/LDH-coupled continuous assay of macrolide phosphorylation; steady-state kinetics, NADH absorbance; settings: substrate inhibition
T3 construct: full-length, His-tagged, expressed in E. coli BL21(DE3), Ni-NTA purified
Method: as §1, with “Steady-state kinetics of Mphs” left out

[4] = system: T4, E. coli BW25113 ΔbamBΔtolC (vector); assay: microbe, parasite or virus in culture; parameters: CLSI broth microdilution MIC in Mueller-Hinton broth; settings: Escherichia coli, BW25113, 24 h
T4 construct: BW25113 ΔbamBΔtolC, empty vector
Method: as §2

T3 sequence (P42242 whole entry): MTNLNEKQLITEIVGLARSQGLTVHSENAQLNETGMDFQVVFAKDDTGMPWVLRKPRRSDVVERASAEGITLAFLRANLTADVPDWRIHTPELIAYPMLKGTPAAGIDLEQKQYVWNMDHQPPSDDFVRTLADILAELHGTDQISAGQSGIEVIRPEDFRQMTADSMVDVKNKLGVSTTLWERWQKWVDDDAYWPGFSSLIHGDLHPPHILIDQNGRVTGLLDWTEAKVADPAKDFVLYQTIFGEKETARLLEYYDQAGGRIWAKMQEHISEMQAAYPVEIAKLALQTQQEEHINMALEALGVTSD

CO[C@@H]1[C@@H](O[C@@H]2O[C@H](C)[C@@H](O[C@H]3C[C@@](C)(O)[C@@H](O)[C@H](C)O3)[C@H](N(C)C)[C@H]2O)[C@@H](CC=O)C[C@@H](C)[C@@H](O[C@H]2CC[C@H](N(C)C)[C@@H](C)O2)/C=C/C=C/C[C@@H](C)OC(=O)C[C@H]1O [Spiramycin]
Ki [1]: 39 ± 16 µM | MIC [2]: 2 µg/mL (≈ 2.37 µM) | Ki [3]: 750 ± 160 µM

CO[C@@H]1[C@@H](O[C@@H]2O[C@H](C)[C@@H](O[C@H]3C[C@@](C)(O)[C@@H](OC(=O)CC(C)C)[C@H](C)O3)[C@H](N(C)C)[C@H]2O)[C@@H](CC=O)C[C@@H](C)[C@@H](O)/C=C/C=C/C[C@@H](C)OC(=O)C[C@H]1OC(C)=O [josamycin]
MIC [4]: 2 to 4 µg/mL (≈ 2.42 to 4.83 µM)
